According to patent US20260034103A1, “COMPOSITIONS AND METHODS FOR IMPROVING MEMORY AND COGNITION” (priority 2022, published 2026):

How the values were obtained:
[1] = tested on: Sprague Dawley rat hippocampal slices; test: Ex vivo electrophysiology: short-lasting long-term potentiation (S-LTP) at hippocampal CA1 synapses; type: cell-based; settings: 10 nM; single 1-sec train of 100-Hz stimulation
From the text: Time-point 0 represents delivery of HFS. Slopes of fEPSP are normalized to baseline and plotted against time.
The effect of compound 1 to enhance mEPSPs may be dependent on the influx of extracellular calcium.

[2] = tested on: adult subjects with major depressive disorder (MDD); test: Phase 2 clinical trial in MDD: QIDS-SR Item #10 Concentration/Decision Making; type: in vivo, human; set-up: key to QIDS-SR Item #10 score, Median / QIDS-SR Item #10 score, Min / QIDS-SR Item #10 score, Max: QIDS-SR Item 10 scored 0 (no change) to 3 (cannot concentrate/decide); settings: 20 mg/day; for QIDS-SR Item #10 Change from Baseline, Max / QIDS-SR Item #10 Change from Baseline, Mean (SD) / QIDS-SR Item #10 Change from Baseline, Median / QIDS-SR Item #10 Change from Baseline, Min / QIDS-SR Item #10 score, Max / QIDS-SR Item #10 score, Mean (SD) / QIDS-SR Item #10 score, Median / QIDS-SR Item #10 score, Min: mITT, Females
Procedure: (§1) A Phase 2, multicenter, double-blind, randomized, placebo-controlled study of the safety and efficacy of SP-624 in the treatment of adult subjects with major depressive disorder (MDD) as defined by the Diagnostic and Statistical Manual of Mental Disorders, Fifth Edition (DSM-5) was carried out. Following the successful completion of a Screening Phase, subjects were randomized to one of two treatment groups in a 1:1 ratio and received Compound 1 (SP-624) or placebo over a treatment period of four weeks (Treatment Group #1: SP-624 20 mg/day; Treatment Group #2: Placebo).
(§2) Prior to initiating the 4-week treatment period, subjects completed a Screening/Baseline period of up to 28 days, during which time all screening assessments were performed, and any current depression medications discontinued. All screening assessments were completed before discontinuing any current depression medications. Subjects returned for a Baseline Visit to complete efficacy and safety assessments. During the treatment period, subjects returned to the investigative site to complete efficacy and safety assessments at the end of Weeks 1, 2, 3, and 4. After the final dose of study drug, subjects completed a follow-up period of two weeks and returned at the end of Weeks 5 and 6. Subjects may be treated with anti-depressant medications according to physician recommendations after completion of the Week 5 Visit.
(§3) Each dose of Compound 1 was supplied as two capsules, each containing 10 mg of active pharmaceutical ingredient (API). Matching placebo capsules identical in shape and color to the active capsules were used.
The study included several measurements related to cognitive function. The first is the QIDS-SR) Item #10 Concentration/Decision Making. The answer scale is: 0—There is no change in my usual capacity to concentrate or make decisions; 1—I occasionally feel indecisive or find that my attention wanders; 2—Most of the time, I struggle to focus my attention or to make decisions; 3—I cannot concentrate well enough to read or cannot make even minor decisions.

[3] = tested on: adult subjects with major depressive disorder (MDD); test: Phase 2 clinical trial in MDD: MADRS Item #6 Concentration Difficulties; type: in vivo, human; set-up: key to MADRS Item #6 Concentration Difficulty score, Median / MADRS Item #6 Concentration Difficulty score, Min / MADRS Item #6 Concentration Difficulty score, Max: 0 = no concentration difficulty, 6 = unable to read/converse; key to MADRS Item #6 Change from Baseline, Median / MADRS Item #6 Change from Baseline, Max: change from baseline on 0–6 MADRS item scale; settings: for MADRS Item #6 Change from Baseline, Max / MADRS Item #6 Change from Baseline, Mean (SD) / MADRS Item #6 Change from Baseline, Median / MADRS Item #6 Change from Baseline, Min / MADRS Item #6 Concentration Difficulty score, Max / MADRS Item #6 Concentration Difficulty score, Mean (SD) / MADRS Item #6 Concentration Difficulty score, Median / MADRS Item #6 Concentration Difficulty score, Min / MADRS Item #6 Change from Baseline, LSM Difference (95% CI) SP-624 vs Placebo: mITT, Females; for MADRS Item #6 Change from Baseline, LSM Difference (95% CI) SP-624 vs Placebo: MMRM
Procedure: as §1, §2, §3
The third cognitive function measurement is MADRS Item #6 Concentration Difficulties (representing difficulties in collecting one's thoughts mounting to incapacitating lack of concentration, rated according to intensity, frequency, and degree of incapacity produced). The answer scale is: 0—No difficulties in concentration; 1—blank; 2—Occasional difficulties in collecting one's thoughts; 3—blank; 4—Difficulties in concentrating and sustaining thought which reduces ability to read or hold a conversation; 5—blank; 6—Unable to read or converse without great difficulty.

[4] = tested on: adult subjects with major depressive disorder (MDD); test: Phase 2 clinical trial in MDD: HAM-D Item #17 Retardation; type: in vivo, human; settings: 20 mg/day; for HAM-D Item #17 Retardation Change From Baseline, Max / HAM-D Item #17 Retardation Change From Baseline, Mean (SD) / HAM-D Item #17 Retardation Change From Baseline, Median / HAM-D Item #17 Retardation Change From Baseline, Min / HAM-D Item #17 Retardation score, Max / HAM-D Item #17 Retardation score, Mean (SD) / HAM-D Item #17 Retardation score, Median / HAM-D Item #17 Retardation score, Min: mITT, Females
Procedure: as §1, §2, §3
The second cognitive function measurement is HAM-D Item #17 Retardation (slowness of thought and speech, impaired ability to concentrate, decreased motor activity). The answer scale is: 0—Normal speech and thought; 1—Slight retardation at interview (mild psychomotor retardation); 2—Obvious retardation at interview (moderate, some difficulty with interview, noticeable pauses and slowness of thought); 3—Interview difficult (severe psychomotor retardation, very long pauses); 4—Complete stupor (extreme retardation, interview barely possible).

[5] = Week 5 (1-week after the last dose), 20 mg/day for four weeks

Structure (SMILES): COC1=CC(=O)C[C@@H](C)[C@]12Oc1c(Cl)c(-c3nnc(C)o3)cc(OC)c1C2=O [Compound 1, (2S,6′R)-7-Chloro-2′,4-dimethoxy-6′-methyl-6-(5-methyl-1,3,4-oxadiazol-2-yl)-3H-spiro[1-benzofuran-2,1′-cyclohex[2]ene]-3,4′-dione]
- short-lasting long-term potentiation (S-LTP) [1]: tended to increase
- QIDS-SR Item #10 Change from Baseline, Max ([2]; Week 2): 1
- QIDS-SR Item #10 Change from Baseline, Mean (SD) ([2]; Week 2): −0.3 (0.71)
- QIDS-SR Item #10 Change from Baseline, Median ([2]; Week 2): 0.0
- QIDS-SR Item #10 Change from Baseline, Min ([2]; Week 2): −3
- QIDS-SR Item #10 score, Max ([2]; Week 2): 3
- QIDS-SR Item #10 score, Mean (SD) ([2]; Week 2): 1.5 (0.82)
- QIDS-SR Item #10 score, Median ([2]; Week 2): 2.0
- QIDS-SR Item #10 score, Min ([2]; Week 2): 0
- QIDS-SR Item #10 Change from Baseline, Max ([2]; Week 4): 1
- QIDS-SR Item #10 Change from Baseline, Mean (SD) ([2]; Week 4): −0.6 (0.80)
- QIDS-SR Item #10 Change from Baseline, Median ([2]; Week 4): 0.0
- QIDS-SR Item #10 Change from Baseline, Min ([2]; Week 4): −3
- QIDS-SR Item #10 score, Max ([2]; Week 4): 3
- QIDS-SR Item #10 score, Mean (SD) ([2]; Week 4): 1.2 (0.86)
- QIDS-SR Item #10 score, Median ([2]; Week 4): 1.0
- QIDS-SR Item #10 score, Min ([2]; Week 4): 0
- QIDS-SR Item #10 Concentration/Decision Making, improvement in score vs placebo ([2]; by week 4 of treatment): greater improvement in score
- MADRS Item #6 Change from Baseline, Max ([3]; Week 1, 20 mg/day): 1
- MADRS Item #6 Change from Baseline, Mean (SD) ([3]; Week 1, 20 mg/day): −0.7 (1.27)
- MADRS Item #6 Change from Baseline, Median ([3]; Week 1, 20 mg/day): 0
- MADRS Item #6 Change from Baseline, Min ([3]; Week 1, 20 mg/day): −5
- MADRS Item #6 Concentration Difficulty score, Max ([3]; Week 1, 20 mg/day): 6
- MADRS Item #6 Concentration Difficulty score, Mean (SD) ([3]; Week 1, 20 mg/day): 3.0 (1.48)
- MADRS Item #6 Concentration Difficulty score, Median ([3]; Week 1, 20 mg/day): 4
- MADRS Item #6 Concentration Difficulty score, Min ([3]; Week 1, 20 mg/day): 0
- MADRS Item #6 Change from Baseline, LSM Difference (95% CI) SP-624 vs Placebo ([3]; Week 1, 20 mg/day, P-value 0.339): −0.2 (−0.5, 0.2)
- MADRS Item #6 Change from Baseline, Max ([3]; Week 2, 20 mg/day): 3
- MADRS Item #6 Change from Baseline, Mean (SD) ([3]; Week 2, 20 mg/day): −0.7 (1.27)
- MADRS Item #6 Change from Baseline, Median ([3]; Week 2, 20 mg/day): 0
- MADRS Item #6 Change from Baseline, Min ([3]; Week 2, 20 mg/day): −4
- MADRS Item #6 Concentration Difficulty score, Max ([3]; Week 2, 20 mg/day): 5
- MADRS Item #6 Concentration Difficulty score, Mean (SD) ([3]; Week 2, 20 mg/day): 3.0 (1.37)
- MADRS Item #6 Concentration Difficulty score, Median ([3]; Week 2, 20 mg/day): 3
- MADRS Item #6 Concentration Difficulty score, Min ([3]; Week 2, 20 mg/day): 0
- MADRS Item #6 Change from Baseline, LSM Difference (95% CI) SP-624 vs Placebo ([3]; Week 2, 20 mg/day, P-value 0.753): 0.1 (−0.3, 0.4)
- MADRS Item #6 Change from Baseline, Max ([3]; Week 3, 20 mg/day): 0
- MADRS Item #6 Change from Baseline, Mean (SD) ([3]; Week 3, 20 mg/day): −1.2 (1.40)
- MADRS Item #6 Change from Baseline, Median ([3]; Week 3, 20 mg/day): −1
- MADRS Item #6 Change from Baseline, Min ([3]; Week 3, 20 mg/day): −5
- MADRS Item #6 Concentration Difficulty score, Max ([3]; Week 3, 20 mg/day): 4
- MADRS Item #6 Concentration Difficulty score, Mean (SD) ([3]; Week 3, 20 mg/day): 2.6 (1.58)
- MADRS Item #6 Concentration Difficulty score, Median ([3]; Week 3, 20 mg/day): 3
- MADRS Item #6 Concentration Difficulty score, Min ([3]; Week 3, 20 mg/day): 0
- MADRS Item #6 Change from Baseline, LSM Difference (95% CI) SP-624 vs Placebo ([3]; Week 3, 20 mg/day, P-value 0.214): −0.3 (−0.7, 0.2)
- MADRS Item #6 Change from Baseline, Max ([3]; Week 4, 20 mg/day): 1
- MADRS Item #6 Change from Baseline, Mean (SD) ([3]; Week 4, 20 mg/day): −1.2 (1.51)
- MADRS Item #6 Change from Baseline, Median ([3]; Week 4, 20 mg/day): −1
- MADRS Item #6 Change from Baseline, Min ([3]; Week 4, 20 mg/day): −4
- MADRS Item #6 Concentration Difficulty score, Max ([3]; Week 4, 20 mg/day): 5
- MADRS Item #6 Concentration Difficulty score, Mean (SD) ([3]; Week 4, 20 mg/day): 2.5 (1.67)
- MADRS Item #6 Concentration Difficulty score, Median ([3]; Week 4, 20 mg/day): 3
- MADRS Item #6 Concentration Difficulty score, Min ([3]; Week 4, 20 mg/day): 0
- MADRS Item #6 Change from Baseline, LSM Difference (95% CI) SP-624 vs Placebo ([3]; Week 4, 20 mg/day, P-value 0.144): −0.3 (−0.8, 0.1)
- MADRS Item #6 Change from Baseline, Max [3, 5]: 1
- MADRS Item #6 Change from Baseline, Mean (SD) [3, 5]: −1.3 (1.51)
- MADRS Item #6 Change from Baseline, Median [3, 5]: −1
- MADRS Item #6 Change from Baseline, Min [3, 5]: −5
- MADRS Item #6 Concentration Difficulty score, Max [3, 5]: 5
- MADRS Item #6 Concentration Difficulty score, Mean (SD) [3, 5]: 2.4 (1.63)
- MADRS Item #6 Concentration Difficulty score, Median [3, 5]: 3
- MADRS Item #6 Concentration Difficulty score, Min [3, 5]: 0
- MADRS Item #6 Change from Baseline, LSM Difference (95% CI) SP-624 vs Placebo ([3]; Week 5 (1-week after the last dose), 20 mg/day for four weeks, P-value 0.007): −0.6 (−1.1, −0.2)
- MADRS Item #6 Concentration Difficulties, improvement in score vs placebo ([3]; all measurement times through week 5, 20 mg/day): greater improvement in score
- HAM-D Item #17 Retardation Change From Baseline, Max ([4]; Week 2): 2
- HAM-D Item #17 Retardation Change From Baseline, Mean (SD) ([4]; Week 2): −0.2 (0.79)
- HAM-D Item #17 Retardation Change From Baseline, Median ([4]; Week 2): 0
- HAM-D Item #17 Retardation Change From Baseline, Min ([4]; Week 2): −2
- HAM-D Item #17 Retardation score, Max ([4]; Week 2): 2
- HAM-D Item #17 Retardation score, Mean (SD) ([4]; Week 2): 0.6 (0.71)
- HAM-D Item #17 Retardation score, Median ([4]; Week 2): 0
- HAM-D Item #17 Retardation score, Min ([4]; Week 2): 0
- HAM-D Item #17 Retardation Change From Baseline, Max ([4]; Week 4): 1
- HAM-D Item #17 Retardation Change From Baseline, Mean (SD) ([4]; Week 4): −0.4 (0.82)
- HAM-D Item #17 Retardation Change From Baseline, Median ([4]; Week 4): 0
- HAM-D Item #17 Retardation Change From Baseline, Min ([4]; Week 4): −2
- HAM-D Item #17 Retardation score, Max ([4]; Week 4): 2
- HAM-D Item #17 Retardation score, Mean (SD) ([4]; Week 4): 0.4 (0.55)
- HAM-D Item #17 Retardation score, Median ([4]; Week 4): 0
- HAM-D Item #17 Retardation score, Min ([4]; Week 4): 0
- HAM-D Item #17 Retardation, improvement in score vs placebo ([4]; by week 4 of treatment): greater improvement in score
